Our source for the IC50 values is BindingDB's records for doi:10.1021/jm00044a007 (Research Triangle Institute, 1994).

The target of the assay is Sodium-dependent dopamine transporter (Rattus norvegicus, UniProt P23977). The experiment in a line: Concentration required to inhibit 50% of radioligand binding ([3H]WIN-35428) to the dopamine (DA) transporter in rat.

Molecules are shown by their SMILES.

Sodium-dependent dopamine transporter, sequence (P23977 whole entry): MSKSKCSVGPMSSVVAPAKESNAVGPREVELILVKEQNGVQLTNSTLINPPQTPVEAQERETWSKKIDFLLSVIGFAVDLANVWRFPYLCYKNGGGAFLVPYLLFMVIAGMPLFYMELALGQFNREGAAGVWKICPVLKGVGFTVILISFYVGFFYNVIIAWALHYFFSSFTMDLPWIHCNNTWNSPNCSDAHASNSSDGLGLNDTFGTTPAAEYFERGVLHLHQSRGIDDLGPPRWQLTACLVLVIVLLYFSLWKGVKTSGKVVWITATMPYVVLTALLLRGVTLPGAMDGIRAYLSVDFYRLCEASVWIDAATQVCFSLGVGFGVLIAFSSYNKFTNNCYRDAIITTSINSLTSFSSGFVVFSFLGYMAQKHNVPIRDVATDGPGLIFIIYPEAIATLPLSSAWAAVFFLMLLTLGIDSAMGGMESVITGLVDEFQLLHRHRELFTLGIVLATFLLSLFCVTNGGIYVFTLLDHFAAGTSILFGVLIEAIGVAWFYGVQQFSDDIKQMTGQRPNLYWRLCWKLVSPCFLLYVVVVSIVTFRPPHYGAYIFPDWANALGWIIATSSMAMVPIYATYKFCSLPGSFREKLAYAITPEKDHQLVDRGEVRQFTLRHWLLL

In general, IC50 refers to the concentration that gives 50% inhibition. Low readings indicate inhibition by little substance, high ones a need for much substance. For `COC(=O)C1C2CCC(C[C@@H]1c1cc[c]([Sn]([CH3])([CH3])[CH3])cc1)N2C` (stereo partly drawn) [(3S,8R)-8-Methyl-3-(4-trimethylstannanyl-phenyl)-8-aza-bicyclo[3.2.1]octane-2-carboxylic acid methyl ester], the IC50 is 144 nM.
